Measured values as given in patent US12104143B2, “Compositions comprising cellulase with a nonionic surfactant and a quaternary ammonium compound” (ECOLAB USA INC., priority 2018, dated 2024).

How the values were obtained:
[1] = tested on: cellulase activity; assay: Shelf life stability by enzyme activity assay, incubated at 37° C. over 8 weeks (Examples 8-10); format: physicochemical; details: for remaining cellulase activity: 4 weeks at 37° C.
Protocol: The impact of pH on shelf life stability was examined. […] The compositions were adjusted to a pH of 4.00, 4.25, and 4.50. Enzyme stability was assessed by an activity assay.
The compositions were adjusted to a pH of 4.25. Two control compositions were also prepared, one without a surfactant and one with the anionic surfactant, […] (SLS), as a negative control. Enzyme stability was assessed by an activity assay. […] The control containing no surfactant approached 0% remaining activity after the 8-week period.
Different stabilizers—glycerol and PEG 200—were tested to assess their effect on shelf life stability of formulations including a quaternary amine. […] The compositions were adjusted to a pH of 4.25. Enzyme stability was assessed by an activity enzyme. A control composition was also prepared having no stabilizer.

[2] = tested on: dark eyed fruit flies (DEFF); assay: Adult fly emergence test, dark eyed fruit flies (DEFF); format: in vivo; details: 1.8% sodium citrate, pH about 4.5; 1% active Bardac 205M, 0.5% Cellulase B or 2% Tween 20 (Test Comp. C, B, A)
Protocol: Tests were performed to assess the cleaning compositions' effectiveness against insects. Small flies, which are common near clogged drains for beverage towers were used for these tests. Carolina Biological Formula 2-24 Instant Drosophila Medium was mixed with water in equal parts liquid to media by volume. A small pinch of active yeast was also added. The media was allowed to sit for two days before the start of the test, allowing the yeast time to ferment and ensure there will be enough food available for fly larvae when introduced in the media. Ten larvae of each fly species are placed into the fruit fly vials containing media two days after starting the media. The age of the larvae varies, but the majority of the larvae in each vial were mid instars larvae. Mature larvae were avoided to prevent pupation before the product is added. Each treatment had 5 replicates, for a total of 50 larvae of each species per treatment. Larvae were collected from the media of existing fly rearing containers. Emergence of adult flies was recorded at one week, two weeks, and three weeks to determine how many of the […] larvae had completed development and emerged as adults. The test was maintained at 80° F. and ambient humidity. Tween 20 was tested as an exemplary nonionic surfactant. DRAIN EASE FLOW from Novozymes was tested as an exemplary enzyme composition. […]

[3] = tested on: DRAIN EASE FLOW activity; assay: Enzyme stability: retained DRAIN EASE FLOW activity in degrading a sugar snake after incubation at 37° C. (Example 6); format: physicochemical; details: 20% stabilizer, 1.0% active Bardac 205M, pH about 4.5
Protocol: Enzyme stability was tested in cleaning compositions prepared with differing stabilizers. […] The effect of pH on stability was also assessed by testing compositions at a pH of 4.5 and 5.5. […] Enzyme stability was again assessed by an activity assay. […] This increased stability is even more pronounced when formulated with 1% active Bardac […].

[4] = Cellulase catalyzed hydrolysis of bacterial cellulose (sugar snake degradation) with stabilizers (Example 7); format: biochemical; details: 10% stabilizer; 0.5 wt. % DRAIN EASE FLOW, 2 wt. % Tween 20, 0.1 wt. % Bardac 205M, pH about 4.0; 20 mL/g, 2 hours
Protocol: The stabilizers tested were PEG 200, Glycerol, Propylene Glycol, and Sucrose. A composition was also prepared without a stabilizer. All the compositions were prepared in water at a pH of about 4.0. A piece of sugar snake weighing about 5 grams was used to screen enzyme performance. The chemistry was dosed at 20 mL/g sugar snake and incubated for 2 hours. The relative enzyme performance was determined at each concentration by comparing the performance to control formulations lacking stabilizer. The results are provided in FIG. 11 where 40 indicates 40% degradation.

Compound: CCCCCCCCCCCC(=O)OCCOCCOCCOCCOCCOCCOCCOCCOCCOCCOCCOCCOCCOCCOCCOCCOCCOCCOCCOCCOCC(OCCOCCOCCOCCOCCOCCOCCOCCOCCOCCOCCOCCOCCOCCOCCOCCOCCOCCOCCOCCO)C1OCC(OCCOCCOCCOCCOCCOCCOCCOCCOCCOCCOCCOCCOCCOCCOCCOCCOCCOCCOCCOCCO)C1OCCOCCOCCOCCOCCOCCOCCOCCOCCOCCOCCOCCOCCOCCOCCOCCOCCOCCOCCOCCO (stereo not drawn) [Tween 20, polyethylene glycol sorbitan monolaurate]
- residual activity after 8 weeks ([1]; 2 wt. % surfactant (or none), 0.2 wt. % Bardac 205M, 10 wt. % PEG 200, 0.5 wt. % DRAIN EASE FLOW, pH 4.25, 37° C.): 55%
- shelf stability ranking among surfactants ([1]; 2 wt. % surfactant, 0.2 wt. % Bardac 205M, 10 wt. % PEG 200, pH 4.25, 37° C., 8 weeks): best stability
- adult DEFF emergence relative to the water and buffer only controls [2]: not statistically significant

Compound: polyethylene glycol 200 [PEG 200]
- enzyme stability relative to control formulations lacking stabilizer [3]: enhanced stability
- remaining cellulase activity ([1]; 10% stabilizer, 175 ppm quaternary amine, pH 4.25): > 40%
- shelf life stability ([1]; 10% stabilizer, 1000 ppm quaternary, pH 4.25, 37° C.): enhanced stability

Compound: OCC(O)CO [glycerol]
- enzyme stability relative to control formulations lacking stabilizer [3]: enhanced stability
- remaining cellulase activity ([1]; 10% stabilizer, both quaternary amine concentrations (175 ppm and 1000 ppm), pH 4.25): > 95%
- shelf life stability ranking among stabilizers ([1]; 10 wt. % stabilizer or none, 175 ppm or 1000 ppm Bardac 205M, pH 4.25, 37° C.): best stability

Compound: OC[C@H]1O[C@@](CO)(O[C@H]2O[C@H](CO)[C@@H](O)[C@H](O)[C@H]2O)[C@@H](O)[C@@H]1O [sucrose]
- sugar snake degradation performance versus control formulations lacking stabilizer [4]: did not statistically impact performance

Compound: polyethylene glycol 400 [PEG 400]
- enzyme stability relative to control formulations lacking stabilizer [3]: did not enhance stability

Compound: CC(O)CO (stereo not drawn) [propylene glycol]
- enzyme stability relative to control formulations lacking stabilizer [3]: did not enhance stability
